Patent US20060211071A1, “Device for aggregating, imaging and analyzing thrombi and a method of use” (Millennium Pharmaceuticals, Inc., priority 2004, published 2006)
Where a SMILES comes first, the peptide text is derived from it. Bridges are numbered along the chain shown (N, C = ends). [ ]: non-standard residue; d: D form. hArg = N=C(N)NCCCC[C@H](N)C(=O)O; Mpa = O=C(O)CCS

What was measured:
preformed thrombi = assay: Stability / reversal of preformed thrombi, blood perfused over collagen surface under arterial shear rates; format: cell-based, human
Procedure: Images are recorded at a frequency of 1 Hz.
Such assays can be used to detect antithrombotic activity of drugs that will target known effectors of thrombus stability reported in animal models of thrombosis (CD40L, Gas6, SLAM, SAP, Ephrin).

[1] = tested on: thrombi on type III collagen-coated capillaries; assay: End-point perfusion chamber assay: effect of anticoagulants on antithrombotic activity of a P2Y12 antagonist; format: cell-based, human; settings: 4 minutes at 1000/sec
Procedure: Several anticoagulants have been studied for their effects on the antithrombotic activity of a proprietary direct P2Y12 antagonist in the perfusion chamber assay. Whole blood was perfused over type III collagen-coated capillaries for 4 minutes at 1000/sec. At the end of the experiment, thrombotic deposits were rinsed, fixed and stained with toluidine blue for measurement of thrombus size. […] FIG. 10B represents the mean grey level (MGL) of the thrombi present in the area of observation located at 8 mm from the proximal part of the capillary. Corresponding thrombus volume was determined using the graph presented on FIG. 10C. Nonanticoagulated or Factor Xa anticoagulated human blood was perfused through type III collagen-coated capillary chambers (Vitrocom, glass rectangular capillaries 0.2 by 2 mm section) at […] for 4 minutes. After staining of the thrombotic deposits with toluidine blue for 45 seconds, an En Face picture located 8 mm downstream of the proximal part of the capillary was taken. Measurement of the gray level of each thrombus or platelets located in a window 400 μm long×250 μm wide was performed, and results are expressed as mean ±SEM using the Simple PCI software (Compix Inc Imaging System). Measurement of the mean thrombus volume (μm^3/μm^2) was performed at the same location on cross sections of the thrombotic deposits after epon embedding as described by Andre et al. (2003) Circulation 108, 2697-2703. Mean thrombus volume was expressed by use of Simple PCI software and plotted against the corresponding mean grey level. By using data from human in vitro (by titrating with the GPIIb/IIIa antagonist eptifibatide) experiments, a thrombotic profile (FIG. 10C) that was then used for a rapid measurement of the thrombus volume in subsequent experiments Was established

platelets = assay: Whole blood treated with GPIIb/IIIa antagonist perfused over collagen surface: monolayer of adhering platelets; format: cell-based; settings: therapeutic dose 2-3 uM
Text: P-selectin is responsible for the recruitment of leukocytes on activated/inflamed vessel wall and at sites of platelet deposition. It is known that leukocyte recruitment under these conditions will contribute to atherosclerotic plaque progression. Therefore monitoring the number of leukocyte rolling on adhering platelets could help define people at risk to develop future atherothrombotic events (number of leukocyte recruited as a predictor of future clinical events). Whole blood treated with a GPIIb/IIIa antagonist (e.g. Integrilin at the therapeutic dose 2-3 uM) and perfused over a collagen surface generate a monolayer of adhering platelets. […] Two to three minutes after the start of the perfusion at arterial shear rates of about ˜600/sec, leukocytes stained with rhodamine 6G are being recruited and roll over the adhering platelets. Antithrombotic agents (or agents targeting the P-selectin/PSGL-1 pathway) that will reduce the amount of leukocyte rolling on adhering platelets will therefore potentially reduce the risks of atherothrombotic events.

[2] = tested on: thrombotic process triggered by type III collagen; settings: 1000/sec
Procedure: The methodology and device described herein allows the monitoring in real time of the deposition of fluorescently labeled platelets into a transparent perfusion chamber (FIG. 11). The thrombosis profiler consists of a custom built epifluorescence microscope to monitor thrombus formation and a syringe pump to establish the desired flow and wall shear rate in the capillary perfusion chamber. A thermostatic sample compartment maintains the blood sample at a temperature of 37° C. Platelets are labeled by adding an aliquot of Rhodamine 6G (final concentration 1.25 μg/ml) to whole blood. […] Excitation and emission light are filtered with a set of fluorescence filters (31002, Chroma Technologies, Rockingham, Vt.). […] Images are recorded at a frequency of 1 Hz. […]
A software/algorithm has been developed in order to obtain a more representative read out of the thrombus formation over time. […] Since the use of antithrombotic drugs can increase platelet adhesion, thrombus size was represented as the measurement of the fluorescence intensity divided by total area (FIG. 12). […] Once the threshold is determined, pixels with values lower than the threshold are classified as background and pixels with values greater than the threshold are marked as foreground. […]

thrombus size = assay: Sequential study of thrombotic profile of 20 healthy volunteers on clopidogrel, aspirin and their combination; format: in vivo, human; settings: clopidogrel 75 mg/day, aspirin 325 mg/day
thrombus destabilization = settings: two 300 mg loading doses of plavix and daily aspirin
[3] = tested on: thrombotic process on collagen+tissue factor coated matrix; assay: Non-anticoagulated blood perfused over fibrillar collagen plus tissue factor matrix; format: cell-based; settings: therapeutic dose; arterial shear rates
Text: In this method, the thrombotic process can be evaluated with non-anticoagulated samples of blood. Non-anticoagulated samples of blood perfused over a thrombogenic matrix made of fibrillar collagen plus tissue factor generate thrombotic process under both venous and arterial shear rates that is sensitive to the action of different anticoagulants. In FIG. 22, the thrombotic profile, is inhibited by the therapeutic dose of enoxaparin and a factor Xa inhibitor indicating this system can be used to detect the activity of anticoagulants under arterial shear rates. Similarly, this method can be used to detect both platelet and fibrin deposition under venous shear rate conditions using for example fluorescently labeled antibodies directed against fibrin.

Q: How did the “mechanism of effect on thrombosis (thrombus stability)” value (“mechanism of effect on thrombosis” below) (preformed thrombi) turn out when `CSc1nc(N)c2ncn([C@@H]3O[C@H](COP(=O)(O)O)[C@@H](O)[C@H]3O)c2n1` [2MeSAMP] was run?
A: The value was “affect thrombosis via a mechanism targeting the thrombus stability”.

Q: And the “destabilization / reversal of preformed thrombi” value (preformed thrombi; 100 uM)?
A: The value was “induces the destabilization of preformed thrombi”.

Q: What about the “extent of the reversal phenomenon in presence of aspirin” value (preformed thrombi; 2MeSAMP at 100 uM, aspirin present) of the same compound?
A: The value was “increased in presence of aspirin”.

Q: With `O=C(O)CC(O)(CC(=O)O)C(=O)O` [Citrate] as the compound, how does the “effect of the anticoagulant on the antithrombotic activity of a P2Y12 antagonist” value (shortened to “effect of the anticoagulant”) [1] read?
A: Its value is “artificially increased the antithrombotic effects of P2Y12 antagonist”.

Q: With `CCCCCNC(=O)c1coc([C@H]2[C@@H](Cc3ccccc3CCC(=O)O)[C@@H]3CC[C@H]2O3)n1` [Ifetroban] as the compound, how does the “mechanism of effect on thrombosis” value (preformed thrombi) read?
A: Its value is “affect thrombosis via a mechanism targeting the thrombus stability”.

Q: What about the “stability of preformed thrombi” value (preformed thrombi; 300 nM and 1 uM) of the same compound?
A: The value was “significantly altered their stability”.

Q: How did the platelet activation (platelets) turn out when `N=C(N)NCCCC[C@@H]1NC(=O)CCSSC[C@@H](C(N)=O)NC(=O)[C@@H]2CCCN2C(=O)[C@H](Cc2c[nH]c3ccccc23)NC(=O)[C@H](CC(=O)O)NC(=O)CNC1=O` [Integrilin] ([Mpa][hArg]GDWPC-NH2; disulfide 1-7) was run?
A: The platelet activation was “platelet activation is not affected”.

Q: What about the thrombus formation (platelets) of the same compound?
A: The thrombus formation was “thrombus formation is abrogated”.

Q: And the “concentration reaching maximum level of inhibition (therapeutic dose)” value ([2]; Factor Xa-anticoagulated blood)?
A: Its value is 2 µM.

Q: What about the “inhibition of the thrombotic process” value ([2]; increasing concentrations spiked into Factor Xa-anticoagulated blood) of the same compound?
A: The value was “dose-dependently inhibited the thrombotic process”.

Q: Which results are given for `CNc1ncnc2c1ncn2[C@H]1C[C@H](OP(=O)(O)O)[C@@H](COP(=O)(O)O)O1` [MRS2179]?
A: destabilization / reversal of preformed thrombi (preformed thrombi; 100 uM): did not induced thrombus reversal; slope of thrombus growth (preformed thrombi; 100 uM, added to preformed thrombi): reduced the slope of thrombus growth

Q: With `NC(N)=NCCC[C@H](NC(=O)[C@@H]1CCCN1C(=O)[C@H](N)Cc1ccccc1)C(=O)CCl` [PPACK] as the compound, how does the “effect of the anticoagulant” value [1] read?
A: The value was “artificially increased the antithrombotic effects of P2Y12 antagonist”.

Q: What does the source list for `CC(=O)Oc1ccccc1C(=O)O` [aspirin]?
A: mechanism of effect on thrombosis (thrombus stability) (preformed thrombi): affect thrombosis via a mechanism targeting the thrombus stability; healthy individuals that did not respond to monotherapy (thrombus size): 5 out of 20

Q: Which “mechanism of effect on thrombosis” value (preformed thrombi) does the source give for `COC(=O)[C@H](c1ccccc1Cl)N1CCc2sccc2C1` [clopidogrel] here?
A: The value was “affect thrombosis via a mechanism targeting the thrombus stability”.

Q: What about the “healthy individuals that did not respond to monotherapy” value (thrombus size) of the same compound?
A: Its value is 4 out of 20.

Q: What about the “antithrombotic protection in type II diabetic patient” value (thrombus destabilization) of the same compound?
A: The value was “lack of protection”.

Q: With enoxaparin as the compound, how does the thrombotic profile [3] read?
A: Its thrombotic profile is “inhibited”.

Q: hirudin was tested. Which “effect of the anticoagulant” value [1] did it give?
A: Its value is “least impact on the antithrombotic activity of P2Y12 antagonist”.
